Molecular target: EGFR (Wistar rat) (UniProt P00533)
Settings: hepatocyte, dose or concentration not given here

Chain of EGFR (Wistar rat) (P00533 whole entry, looked up): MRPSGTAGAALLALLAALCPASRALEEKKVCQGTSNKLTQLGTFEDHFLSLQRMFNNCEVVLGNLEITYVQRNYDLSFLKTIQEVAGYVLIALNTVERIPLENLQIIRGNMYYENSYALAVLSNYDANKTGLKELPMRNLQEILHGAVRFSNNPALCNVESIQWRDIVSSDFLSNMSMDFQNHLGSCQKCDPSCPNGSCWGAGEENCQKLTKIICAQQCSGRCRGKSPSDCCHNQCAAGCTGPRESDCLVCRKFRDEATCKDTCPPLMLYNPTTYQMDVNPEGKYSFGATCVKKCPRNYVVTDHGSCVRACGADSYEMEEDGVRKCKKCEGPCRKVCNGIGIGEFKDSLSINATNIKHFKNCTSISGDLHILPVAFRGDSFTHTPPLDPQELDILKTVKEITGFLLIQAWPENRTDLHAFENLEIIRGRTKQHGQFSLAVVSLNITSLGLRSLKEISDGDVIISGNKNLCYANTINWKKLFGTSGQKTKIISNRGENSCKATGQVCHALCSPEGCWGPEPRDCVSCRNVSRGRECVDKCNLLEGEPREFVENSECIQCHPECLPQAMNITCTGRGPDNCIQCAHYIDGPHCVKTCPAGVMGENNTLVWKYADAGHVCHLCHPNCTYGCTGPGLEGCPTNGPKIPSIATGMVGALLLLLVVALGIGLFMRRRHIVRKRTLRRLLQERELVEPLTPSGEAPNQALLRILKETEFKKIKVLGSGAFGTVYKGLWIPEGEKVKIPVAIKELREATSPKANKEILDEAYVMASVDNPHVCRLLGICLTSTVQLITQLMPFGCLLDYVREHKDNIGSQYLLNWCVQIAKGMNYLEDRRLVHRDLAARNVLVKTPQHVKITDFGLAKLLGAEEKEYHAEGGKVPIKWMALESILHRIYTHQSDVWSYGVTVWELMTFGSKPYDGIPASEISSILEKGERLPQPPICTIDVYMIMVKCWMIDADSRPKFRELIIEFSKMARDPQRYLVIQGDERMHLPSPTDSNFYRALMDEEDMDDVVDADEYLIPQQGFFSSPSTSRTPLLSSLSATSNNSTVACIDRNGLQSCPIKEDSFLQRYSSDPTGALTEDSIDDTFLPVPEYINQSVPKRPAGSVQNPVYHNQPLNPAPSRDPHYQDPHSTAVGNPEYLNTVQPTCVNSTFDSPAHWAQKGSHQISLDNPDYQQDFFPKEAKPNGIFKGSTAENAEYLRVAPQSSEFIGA

Work on `COc1cccc(-c2cc(=O)c3ccccc3o2)c1N` yielded a DNA synthesis of 16%.
